Reference: paper PMC2990104 (Advances in Pharmacological Sciences, 2010)

Tests used:
Format in all cases: cell-based
[1] = target: T1, L-type calcium channel (LTCC) (Rattus norvegicus, UniProt P22002); test: whole-cell patch clamp of ICa,L in A7r5 cells (stimulation); details: read-out: % stimulation above basal at 10 nM
T1 construct: gene Cacna1c; native channel in A7r5 cells

[2] = target: T1, L-type calcium channel (LTCC); test: whole-cell patch clamp of ICa,L in A7r5 cells; details: read-out: % of basal current at 1 μM
[3] = target: T1, L-type calcium channel (LTCC); test: whole-cell patch clamp of basal and BAY-stimulated ICa,L in A7r5 cells

T1 sequence (P22002 whole entry): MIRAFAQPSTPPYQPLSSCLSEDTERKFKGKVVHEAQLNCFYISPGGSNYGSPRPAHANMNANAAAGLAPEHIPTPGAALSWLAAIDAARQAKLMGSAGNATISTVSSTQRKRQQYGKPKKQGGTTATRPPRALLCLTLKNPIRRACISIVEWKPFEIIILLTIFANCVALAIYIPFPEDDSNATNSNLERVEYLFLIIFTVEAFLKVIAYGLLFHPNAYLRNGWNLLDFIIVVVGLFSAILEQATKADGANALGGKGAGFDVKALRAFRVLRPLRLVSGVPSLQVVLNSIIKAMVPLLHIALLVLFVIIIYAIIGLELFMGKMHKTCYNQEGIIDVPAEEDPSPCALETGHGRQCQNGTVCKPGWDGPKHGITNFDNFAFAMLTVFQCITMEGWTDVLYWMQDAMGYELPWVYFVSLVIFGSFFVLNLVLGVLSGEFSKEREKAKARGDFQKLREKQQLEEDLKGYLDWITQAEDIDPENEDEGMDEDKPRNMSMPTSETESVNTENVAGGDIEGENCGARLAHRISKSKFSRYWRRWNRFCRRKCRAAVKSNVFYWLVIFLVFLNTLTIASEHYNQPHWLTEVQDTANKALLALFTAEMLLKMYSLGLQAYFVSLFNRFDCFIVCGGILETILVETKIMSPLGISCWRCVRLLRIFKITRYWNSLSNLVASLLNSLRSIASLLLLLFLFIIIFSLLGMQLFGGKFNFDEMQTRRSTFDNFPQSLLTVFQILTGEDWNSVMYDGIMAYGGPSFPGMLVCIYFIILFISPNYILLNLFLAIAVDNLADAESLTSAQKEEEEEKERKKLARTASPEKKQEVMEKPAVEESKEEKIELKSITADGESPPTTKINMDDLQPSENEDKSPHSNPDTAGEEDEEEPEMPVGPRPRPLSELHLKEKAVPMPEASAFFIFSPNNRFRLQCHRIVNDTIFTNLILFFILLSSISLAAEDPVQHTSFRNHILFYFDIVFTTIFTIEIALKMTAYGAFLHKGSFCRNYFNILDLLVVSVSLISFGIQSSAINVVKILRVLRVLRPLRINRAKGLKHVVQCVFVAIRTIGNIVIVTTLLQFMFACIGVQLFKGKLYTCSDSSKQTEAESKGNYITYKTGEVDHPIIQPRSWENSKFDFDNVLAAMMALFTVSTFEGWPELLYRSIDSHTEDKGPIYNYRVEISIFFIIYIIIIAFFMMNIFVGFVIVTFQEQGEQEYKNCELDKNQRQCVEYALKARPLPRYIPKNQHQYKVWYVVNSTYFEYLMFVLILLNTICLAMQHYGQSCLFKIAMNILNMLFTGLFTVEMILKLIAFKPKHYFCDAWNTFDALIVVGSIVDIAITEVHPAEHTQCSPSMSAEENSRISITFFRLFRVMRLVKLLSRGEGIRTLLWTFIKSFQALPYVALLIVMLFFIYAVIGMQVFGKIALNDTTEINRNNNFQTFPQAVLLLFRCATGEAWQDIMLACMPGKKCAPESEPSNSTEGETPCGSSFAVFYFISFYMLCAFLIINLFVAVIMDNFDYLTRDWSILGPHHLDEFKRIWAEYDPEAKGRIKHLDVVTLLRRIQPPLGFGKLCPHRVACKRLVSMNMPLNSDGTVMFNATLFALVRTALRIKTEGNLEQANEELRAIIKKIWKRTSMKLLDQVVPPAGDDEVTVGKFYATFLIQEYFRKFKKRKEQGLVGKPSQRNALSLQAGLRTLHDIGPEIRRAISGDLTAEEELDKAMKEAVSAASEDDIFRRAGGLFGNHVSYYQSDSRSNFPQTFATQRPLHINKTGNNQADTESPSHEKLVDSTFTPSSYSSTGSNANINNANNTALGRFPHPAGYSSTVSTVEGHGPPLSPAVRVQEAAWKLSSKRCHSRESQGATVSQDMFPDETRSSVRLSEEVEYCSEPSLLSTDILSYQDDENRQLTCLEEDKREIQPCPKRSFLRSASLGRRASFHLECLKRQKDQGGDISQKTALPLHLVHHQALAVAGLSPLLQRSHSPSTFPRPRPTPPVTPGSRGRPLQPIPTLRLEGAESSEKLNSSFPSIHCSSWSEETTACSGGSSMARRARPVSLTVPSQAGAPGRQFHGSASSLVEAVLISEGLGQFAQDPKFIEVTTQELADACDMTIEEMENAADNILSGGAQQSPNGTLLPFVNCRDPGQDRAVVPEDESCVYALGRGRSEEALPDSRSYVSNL

## COC(=O)C1=C(C)NC(C)=C([N+](=O)[O-])[C@H]1c1ccccc1C(F)(F)F [BAY, (−)-Bay K8644]
[1]
  activation at 0.01 µM: 74.8 ± 5.7%

## COC(=O)C1=C(C)NC(C)=C(C(=O)OC)C1c1ccccc1[N+](=O)[O-] [NIF, nifedipine]
[2]
  activity at 1 µM: 20.6 ± 2.2%

## CC(C)CCC[C@@H](C)[C@H]1CC[C@H]2[C@@H]3CC=C4C[C@@H](O)CC[C@]4(C)[C@H]3CC[C@]12C [cholesterol]
[3]
  inhibition at 100 µM: 73.9 ± 16.8%
